From paper PMC5218480 (PLoS ONE, 2017)

System: MV-4-11 cells
Test: Gene expression microarray analysis (Affymetrix PrimeView) and GSEA
Assay type: cell-based, human
Parameters: RFU PODN (11730768_x_at) / Fold change /veh PODN (11730768_x_at) / RFU LINC00158 (11744669_a_at) / Fold change /veh LINC00158 (11744669_a_at) / RFU DUSP10 (11751237_a_at) / Fold change /veh DUSP10 (11751237_a_at) / RFU ID3 (11757404_x_at) / Fold change /veh ID3 (11757404_x_at) / RFU PLEKHG5 (11737974_s_at) / Fold change /veh PLEKHG5 (11737974_s_at) / RFU LRRC4B (11730491_at) / Fold change /veh LRRC4B (11730491_at) / RFU GIMAP4 (11747438_a_at) / Fold change /veh GIMAP4 (11747438_a_at) / RFU KRT8 (11758183_x_at) / Fold change /veh KRT8 (11758183_x_at) / RFU CNN1 (11734310_a_at) / Fold change /veh CNN1 (11734310_a_at) / RFU VPS37D (11726825_at) / Fold change /veh VPS37D (11726825_at) / RFU C10orf10 (11716522_x_at) / Fold change /veh C10orf10 (11716522_x_at) / RFU KIR2DL2 /// KIR2DL4 /// KIR2DL5A /// KIR2DL5B /// KIR2DS1 /// KIR2DS2 /// KIR2DS3 /// KIR2DS4 /// KIR3DL3 /// KIR3DL3 /// KIR3DS1 (11738374_at) / Fold change /veh KIR2DL2 /// KIR2DL4 /// KIR2DL5A /// KIR2DL5B /// KIR2DS1 /// KIR2DS2 /// KIR2DS3 /// KIR2DS4 /// KIR3DL3 /// KIR3DL3 /// KIR3DS1 (11738374_at) / RFU C1QL1 (11718748_at) / Fold change /veh C1QL1 (11718748_at) / RFU TMPRSS4 (11747572_a_at) / Fold change /veh TMPRSS4 (11747572_a_at) / RFU HAMP (11756126_x_at) / Fold change /veh HAMP (11756126_x_at) / RFU RNFT2 (11725882_a_at) / Fold change /veh RNFT2 (11725882_a_at) / RFU NR4A2 (11747474_a_at) / Fold change /veh NR4A2 (11747474_a_at) / RFU ABCC12 (11746883_a_at) / Fold change /veh ABCC12 (11746883_a_at) / RFU TMEM136 (11760407_x_at) / Fold change /veh TMEM136 (11760407_x_at) / RFU CLDN22 /// WWC2 (11732394_at) / Fold change /veh CLDN22 /// WWC2 (11732394_at) / RFU HLA-DPB1 (11760878_x_at) / Fold change /veh HLA-DPB1 (11760878_x_at) / RFU SPINT1 (11716480_a_at) / Fold change /veh SPINT1 (11716480_a_at) / RFU GAP43 (11754022_s_at) / Fold change /veh GAP43 (11754022_s_at) / RFU A4GNT (11735810_at) / Fold change /veh A4GNT (11735810_at) / RFU PRB3 (11715151_x_at) / Fold change /veh PRB3 (11715151_x_at) / RFU TUBB4B (11761932_at) / Fold change /veh TUBB4B (11761932_at) / RFU CAPN14 (11732068_a_at) / Fold change /veh CAPN14 (11732068_a_at) / RFU TMCC2 (11721928_a_at) / Fold change /veh TMCC2 (11721928_a_at) / RFU IRGQ (11745062_a_at) / Fold change /veh IRGQ (11745062_a_at) / RFU FAM174B (11720279_a_at) / Fold change /veh FAM174B (11720279_a_at) / RFU TMPRSS4 (11748680_a_at) / Fold change /veh TMPRSS4 (11748680_a_at) / RFU FAM212B (11763350_a_at) / Fold change /veh FAM212B (11763350_a_at) / RFU PLEKHG5 (11743358_a_at) / Fold change /veh PLEKHG5 (11743358_a_at) / RFU ZSCAN30 (11745921_a_at) / Fold change /veh ZSCAN30 (11745921_a_at) / RFU CMKLR1 (11741424_a_at) / Fold change /veh CMKLR1 (11741424_a_at) / RFU LOC101060620 /// MAPK8IP1 (11723275_at) / Fold change /veh LOC101060620 /// MAPK8IP1 (11723275_at) / RFU SPTSSB (11747773_x_at) / Fold change /veh SPTSSB (11747773_x_at) / RFU PRSS12 (11739890_at) / Fold change /veh PRSS12 (11739890_at) / RFU BIN1 (11741810_x_at) / Fold change /veh BIN1 (11741810_x_at) / RFU WNT11 (11732464_a_at) / Fold change /veh WNT11 (11732464_a_at) / RFU C10orf10 (11716521_a_at) / Fold change /veh C10orf10 (11716521_a_at) / RFU C5orf56 (11738089_at) / Fold change /veh C5orf56 (11738089_at) / RFU CYB561 (11721691_x_at) / Fold change /veh CYB561 (11721691_x_at) / RFU ANKRD19P (11752326_a_at) / Fold change /veh ANKRD19P (11752326_a_at) / RFU OR2T12 /// OR2T33 /// OR2T8 (11738714_s_at) / Fold change /veh OR2T12 /// OR2T33 /// OR2T8 (11738714_s_at) / RFU VCAN (11748164_a_at) / Fold change /veh VCAN (11748164_a_at) / RFU JSRP1 (11732532_at) / Fold change /veh JSRP1 (11732532_at) / RFU KRTAP10-11 (11738290_x_at) / Fold change /veh KRTAP10-11 (11738290_x_at) / RFU MYO3A (11730013_a_at) / Fold change /veh MYO3A (11730013_a_at) / RFU EBF3 (11725865_a_at) / Fold change /veh EBF3 (11725865_a_at) / RFU CAMK2N1 (11719241_x_at) / Fold change /veh CAMK2N1 (11719241_x_at) / RFU C5orf56 (11738088_a_at) / Fold change /veh C5orf56 (11738088_a_at) / RFU OLFML3 (11715873_a_at) / Fold change /veh OLFML3 (11715873_a_at) / RFU LOC100653217 /// NTM (11731650_a_at) / Fold change /veh LOC100653217 /// NTM (11731650_a_at) / RFU MAPK11 (11762145_a_at) / Fold change /veh MAPK11 (11762145_a_at) / RFU FIZ1 (11724087_x_at) / Fold change /veh FIZ1 (11724087_x_at) / RFU OASL (11726364_x_at) / Fold change /veh OASL (11726364_x_at) / RFU SOX15 (11748057_x_at) / Fold change /veh SOX15 (11748057_x_at) / RFU CD79A (11719716_a_at) / Fold change /veh CD79A (11719716_a_at) / RFU HIST1H1D (11736915_at) / Fold change /veh HIST1H1D (11736915_at) / RFU CASKIN2 (11723855_a_at) / Fold change /veh CASKIN2 (11723855_a_at) / RFU LOC730098 (11760151_x_at) / Fold change /veh LOC730098 (11760151_x_at) / RFU OR4N2 (11742367_at) / Fold change /veh OR4N2 (11742367_at) / RFU PRRT2 (11749266_a_at) / Fold change /veh PRRT2 (11749266_a_at) / RFU SNX32 (11753110_a_at) / Fold change /veh SNX32 (11753110_a_at) / RFU CDHR5 (11726645_a_at) / Fold change /veh CDHR5 (11726645_a_at) / RFU RCAN1 (11760418_a_at) / Fold change /veh RCAN1 (11760418_a_at) / RFU FAM167A (11723789_a_at) / Fold change /veh FAM167A (11723789_a_at) / RFU FAM26E (11764081_at) / Fold change /veh FAM26E (11764081_at) / RFU ISYNA1 (11749810_s_at) / Fold change /veh ISYNA1 (11749810_s_at) / RFU ACY1 (11761880_at) / Fold change /veh ACY1 (11761880_at) / RFU 11764098_at / Fold change /veh 11764098_at / RFU SAMD14 (11745864_x_at) / Fold change /veh SAMD14 (11745864_x_at) / RFU NPB (11741838_a_at) / Fold change /veh NPB (11741838_a_at) / RFU TMPRSS6 (11731388_a_at) / Fold change /veh TMPRSS6 (11731388_a_at) / RFU KRTAP10-2 (11738614_at) / Fold change /veh KRTAP10-2 (11738614_at) / RFU ARHGAP8 /// PRR5-ARHGAP8 (11727945_x_at) / Fold change /veh ARHGAP8 /// PRR5-ARHGAP8 (11727945_x_at) / RFU KRTAP5-7 /// NADSYN1 (11734609_at) / Fold change /veh KRTAP5-7 /// NADSYN1 (11734609_at) / RFU RASL12 (11751679_a_at) / Fold change /veh RASL12 (11751679_a_at) / RFU CDKN2B (11736163_a_at) / Fold change /veh CDKN2B (11736163_a_at) / RFU PRF1 (11729649_at) / Fold change /veh PRF1 (11729649_at) / RFU, ZNF638 /// ZNF638-IT1 / Fold change vs veh, ZNF638 /// ZNF638-IT1 / RFU, PANK3 / Fold change vs veh, PANK3 / RFU, SH3YL1 / Fold change vs veh, SH3YL1 / RFU, ZEB2 / Fold change vs veh, ZEB2 / RFU, NRIP1 / Fold change vs veh, NRIP1 / RFU, PTTG1IP / Fold change vs veh, PTTG1IP / RFU, CAPN2 / Fold change vs veh, CAPN2 / RFU, MED14 / Fold change vs veh, MED14 / RFU, SNORA58 / Fold change vs veh, SNORA58 / RFU, C1orf63 / Fold change vs veh, C1orf63 / RFU, LRRFIP1 / Fold change vs veh, LRRFIP1 / RFU, NDUFAF7 / Fold change vs veh, NDUFAF7 / RFU, SLC12A2 / Fold change vs veh, SLC12A2 / RFU, IBTK / Fold change vs veh, IBTK / RFU, ESF1 / Fold change vs veh, ESF1 / Fold change vs veh, TMEM50B / RFU, TAOK1 / Fold change vs veh, TAOK1 / RFU, ACBD3 / Fold change vs veh, ACBD3 / RFU, TMA16 / Fold change vs veh, TMA16 / RFU, RWDD3 / Fold change vs veh, RWDD3 / RFU, BCAT1 / Fold change vs veh, BCAT1 / RFU, EDEM3 / Fold change vs veh, EDEM3 / RFU, TMEM33 / Fold change vs veh, TMEM33 / RFU, WDR75 / Fold change vs veh, WDR75 / RFU, AHCTF1 / Fold change vs veh, AHCTF1 / RFU, TFRC / Fold change vs veh, TFRC / RFU, ZDHHC17 / Fold change vs veh, ZDHHC17 / RFU, NOM1 / Fold change vs veh, NOM1 / RFU, ARL8B / Fold change vs veh, ARL8B / RFU, ZBTB11 / Fold change vs veh, ZBTB11 / RFU, TAMM41 / Fold change vs veh, TAMM41 / RFU, KIAA1704 /// LOC100996395 / Fold change vs veh, KIAA1704 /// LOC100996395 / RFU, ING1 / Fold change vs veh, ING1 / RFU, TRMT61B / Fold change vs veh, TRMT61B / RFU, FUBP3 / Fold change vs veh, FUBP3 / RFU, TP53 / Fold change vs veh, TP53 / RFU, TNKS2 / Fold change vs veh, TNKS2 / RFU, ZFP14 / Fold change vs veh, ZFP14 / RFU, ACTR2 / Fold change vs veh, ACTR2 / RFU, PPP3R1 / Fold change vs veh, PPP3R1 / RFU, PIK3R1 / Fold change vs veh, PIK3R1 / RFU, HNRNPA1 / Fold change vs veh, HNRNPA1 / RFU, RNF170 / Fold change vs veh, RNF170 / RFU, ZNF28 / Fold change vs veh, ZNF28 / RFU, RNGTT / Fold change vs veh, RNGTT / RFU, OGT / Fold change vs veh, OGT / RFU, BRD1 / Fold change vs veh, BRD1 / RFU, MARS / Fold change vs veh, MARS / RFU, ZNF655 / Fold change vs veh, ZNF655 / RFU, FAHD1 / Fold change vs veh, FAHD1 / RFU, BDP1 / Fold change vs veh, BDP1 / RFU, LRRCC1 / Fold change vs veh, LRRCC1 / RFU, ARID1A / Fold change vs veh, ARID1A / RFU, ZNF146 / Fold change vs veh, ZNF146 / RFU, ZNF330 / Fold change vs veh, ZNF330 / RFU, GPN3 / Fold change vs veh, GPN3 / RFU, C9orf123 / Fold change vs veh, C9orf123 / RFU, N4BP2L2 / Fold change vs veh, N4BP2L2 / RFU, ARFIP1 / Fold change vs veh, ARFIP1 / RFU, FAM179B / Fold change vs veh, FAM179B / RFU, BCL10 / Fold change vs veh, BCL10 / RFU, UHRF1BP1L / Fold change vs veh, UHRF1BP1L / RFU, BET1 / Fold change vs veh, BET1 / RFU, CNOT2 / Fold change vs veh, CNOT2 / RFU, ZNF268 / Fold change vs veh, ZNF268 / Fold change vs veh, ZNF507 / RFU, DGCR2 / Fold change vs veh, DGCR2 / RFU, WDSUB1 / Fold change vs veh, WDSUB1 / Fold change vs veh, HSP90B1 /// MIR3652 / RFU, ADSS / Fold change vs veh, ADSS / RFU, GK / Fold change vs veh, GK / RFU, ZNF148 / Fold change vs veh, ZNF148 / RFU, TAF9 / Fold change vs veh, TAF9 / RFU, SLC1A5 / Fold change vs veh, SLC1A5 / RFU, SLMO2 / Fold change vs veh, SLMO2 / RFU, ABCC4 / Fold change vs veh, ABCC4 / RFU, LOC101060439 /// RAP1B / Fold change vs veh, LOC101060439 /// RAP1B / RFU, RFX7 / Fold change vs veh, RFX7 / RFU, GTPBP10 / Fold change vs veh, GTPBP10 / RFU, CNEP1R1 / Fold change vs veh, CNEP1R1 / RFU, BIVM-ERCC5 /// ERCC5 / Fold change vs veh, BIVM-ERCC5 /// ERCC5 / RFU, ILF3 / Fold change vs veh, ILF3 / RFU 11762660_at / Fold change /veh 11762660_at / RFU VCAN (11757783_s_at) / Fold change /veh VCAN (11757783_s_at) / RFU DDX43 (11728927_at) / Fold change /veh DDX43 (11728927_at) / RFU KRT8 (11758188_x_at) / Fold change /veh KRT8 (11758188_x_at) / RFU NKD1 (11759106_at) / Fold change /veh NKD1 (11759106_at) / RFU SRD5A1 (11742802_a_at) / Fold change /veh SRD5A1 (11742802_a_at) / RFU TPSAB1 /// TPSB2 (11721975_s_at) / Fold change /veh TPSAB1 /// TPSB2 (11721975_s_at) / RFU GSTM3 (11746129_a_at) / Fold change /veh GSTM3 (11746129_a_at) / RFU IL23R (11737362_x_at) / Fold change /veh IL23R (11737362_x_at) / RFU TMEM51 (11727254_a_at) / Fold change /veh TMEM51 (11727254_a_at) / RFU PIWIL2 (11732686_x_at) / Fold change /veh PIWIL2 (11732686_x_at) / RFU ORM1 (11744905_x_at) / Fold change /veh ORM1 (11744905_x_at) / RFU CCDC152 (11743942_at) / Fold change /veh CCDC152 (11743942_at) / RFU ECM1 (11717891_a_at) / Fold change /veh ECM1 (11717891_a_at) / RFU IL23R (11748794_a_at) / Fold change /veh IL23R (11748794_a_at) / RFU TNFAIP8L3 (11732012_x_at) / Fold change /veh TNFAIP8L3 (11732012_x_at) / RFU MBOAT4 (11741988_at) / Fold change /veh MBOAT4 (11741988_at) / RFU 11764193_at / Fold change /veh 11764193_at / RFU TMEM53 (11763286_at) / Fold change /veh TMEM53 (11763286_at) / RFU MAGEB2 (11727129_at) / Fold change /veh MAGEB2 (11727129_at) / RFU TMEM200A (11744735_a_at) / Fold change /veh TMEM200A (11744735_a_at) / RFU CCDC152 (11751479_a_at) / Fold change /veh CCDC152 (11751479_a_at) / RFU FAM211A (11726209_a_at) / Fold change /veh FAM211A (11726209_a_at) / RFU RGS16 (11746705_a_at) / Fold change /veh RGS16 (11746705_a_at) / RFU VCAN (11755009_s_at) / Fold change /veh VCAN (11755009_s_at) / RFU RHOB (11743442_s_at) / Fold change /veh RHOB (11743442_s_at) / RFU RGS16 (11720943_a_at) / Fold change /veh RGS16 (11720943_a_at) / RFU RGS16 (11720944_at) / Fold change /veh RGS16 (11720944_at) / RFU, VPS4B / Fold change vs veh, VPS4B / RFU, CREB1 / Fold change vs veh, CREB1 / RFU, DNAJC13 / Fold change vs veh, DNAJC13 / RFU, GNAQ / Fold change vs veh, GNAQ / RFU, CDK5R1 / Fold change vs veh, CDK5R1 / RFU, ZRANB3 / Fold change vs veh, ZRANB3 / RFU, CUL4A / Fold change vs veh, CUL4A / RFU, CCNY / Fold change vs veh, CCNY / RFU, UFL1 / Fold change vs veh, UFL1 / RFU, COG3 / Fold change vs veh, COG3 / RFU, DIAPH2 / Fold change vs veh, DIAPH2 / RFU, SKA2 / Fold change vs veh, SKA2 / RFU, AFF3 / Fold change vs veh, AFF3 / RFU, LMF1 / Fold change vs veh, LMF1 / RFU, IPO11 / Fold change vs veh, IPO11 / RFU, DFFB / Fold change vs veh, DFFB / RFU, FOXP1 / Fold change vs veh, FOXP1 / RFU, CARD8 / Fold change vs veh, CARD8 / RFU, STRN3 / Fold change vs veh, STRN3 / RFU, ADK / Fold change vs veh, ADK / RFU, RASSF2 / Fold change vs veh, RASSF2 / RFU, WIPF1 / Fold change vs veh, WIPF1 / RFU, LARP1B / Fold change vs veh, LARP1B / RFU, RASA1 / Fold change vs veh, RASA1 / RFU, RB1 / Fold change vs veh, RB1 / RFU, PPFIA1 / Fold change vs veh, PPFIA1 / RFU, MAT2A / Fold change vs veh, MAT2A / RFU, CCT5 / Fold change vs veh, CCT5 / RFU, WDR92 / Fold change vs veh, WDR92 / RFU, CUX1 / Fold change vs veh, CUX1 / RFU, TTC7A / Fold change vs veh, TTC7A / RFU, TMEM135 / Fold change vs veh, TMEM135 / RFU, DEPTOR / Fold change vs veh, DEPTOR / RFU, CPM / Fold change vs veh, CPM / RFU, DNAJB6 / Fold change vs veh, DNAJB6 / RFU, CACNA2D3 / Fold change vs veh, CACNA2D3 / RFU, DTX4 / Fold change vs veh, DTX4 / RFU, TFCP2 / Fold change vs veh, TFCP2 / RFU, GMCL1 /// GMCL1P1 / Fold change vs veh, GMCL1 /// GMCL1P1 / RFU, AEBP2 / Fold change vs veh, AEBP2 / RFU, SNHG1 /// SNORD22 /// SNORD25 /// SNORD26 /// SNORD27 /// SNORD28 /// SNORD29 /// SNORD31 / Fold change vs veh, SNHG1 /// SNORD22 /// SNORD25 /// SNORD26 /// SNORD27 /// SNORD28 /// SNORD29 /// SNORD31 / Fold change (Aza/veh), C12orf56 (ProbeSet 11735607_a_at) / Fold change (ACY-1035/veh), C12orf56 (ProbeSet 11735607_a_at) / Fold change (Aza/veh), FGFR1OP (ProbeSet 11751329_s_at) / Fold change (ACY-1035/veh), FGFR1OP (ProbeSet 11751329_s_at) / Fold change (Aza/veh), VPS36 (ProbeSet 11739960_a_at) / Fold change (ACY-1035/veh), VPS36 (ProbeSet 11739960_a_at) / RFU SYPL1 (11715823_x_at) / Fold change /veh SYPL1 (11715823_x_at) / RFU IGFBP7 (11715501_s_at) / Fold change /veh IGFBP7 (11715501_s_at) / RFU REEP3 (11722064_at) / Fold change /veh REEP3 (11722064_at) / RFU IGLL1 (11728026_x_at) / Fold change /veh IGLL1 (11728026_x_at): dose or concentration left out as unconfirmed
Conditions: ProbeSet 11745260_x_at; LIST B

Compound: Nc1ncn([C@@H]2O[C@H](CO)[C@@H](O)[C@H]2O)c(=O)n1 [azacitidine]
- Fold change vs veh, SLC12A2: 0.91
